{"source": "patent US20130040291A1", "about": "“Detection and Quantification of Cellular Stress Response Resolution Pathway Expression and Functionality and the Effects of Agents or Conditions Thereupon” (priority 2011, published 2013)", "test_system": "CDNR4 cells", "assay_type": "cell-based, murine", "experimental": "Following the cessation of the calibrated stress conditions exposure, the SR assay raw data is collected in the form of positive and negative wells (or cell growth sites) and in the form of viable or dead cell clones. The next steps of the assay involve expanding viable clones and determining their phenotypes. When the phenotype of interest being investigated in the SR assay is cell survival, the clones can be sub-classified using the testing listed in Table 6. This testing is performed as follows. Clones are removed from the tissue culture vessels in which they were placed before the start of the calibrated stress conditions exposure (using methods appropriate for the cell type), and subdivided into 4 different aliquots. Each aliquot is re-plated in an appropriate tissue culture vessel in medium containing the following. For one aliquot, the medium is growth medium (conditioned medium may be used) only; for a second aliquot the medium is supplemented with guanosine or folic acid at a concentration sufficient to enhance the survival and expansion of HPRT^− clones; for a third aliquot, the medium contains the same level of agent as used for the calibrated stress condition exposure, and the fourth aliquot is placed in HAT-medium containing an amount of aminopterin that is sufficient to induce growth arrest and/or cell death in Phen-HPRT^− cells of the cell type of interest (see above). Cell morphology (where informative for cell behavior and/or gene expression) and cell growth are monitored over the next 2, to 4 days to determine the response of the cells to these differing conditions. Cell clones can be subjected to additional testing as desired to evaluate further endpoints of interest and/or can be cryopreserved for future evaluations.\nTo subgroup Phen-ah clones as Phen-alt-rev or Phen-alt-irr, a representative group of these clones is tested further by subjecting the clones to repeated rounds of exposure to the calibrated stress conditions. Other stress inducing agents also may be used. Each exposure cycle is followed by a period of time to allow the cells to recover, and thus, to resolve the stress environment. After each exposure round, the percentage of cells that are resistant to the stress inducing agent or condition is recorded. […] The parental cell response that has been used in the examples below is defined as greater than 99% sensitivity to the calibrated stress conditions agent or condition, as evidenced by cell cycle arrest and/or cell death following exposure to the SR induction agent. Other stress response endpoints may be used and will depend upon the nature of the stress inducing agent used; these endpoints are incorporated herein.\nThe murine mammary epithelial cells designated CDNR4 were grown in their preferred growth medium (42% DMEM, 42% Hams F-12, 12% FBS, 1% 100×L-glutamine, 1% pen-strep, 0.5% to 1% bovine pituitary extract) until approximately 6 million cells were available. Cells were removed from the expansion flasks, counted, and replated at a rate of 500,000 cells per […] flask in growth medium. The flasks were assigned randomly to one of two groups: a vehicle-alone exposure (control group); an ENU-exposure (treated) group. […] For group 1 flasks, a volume of growth medium equal to the volume of ENU was added to the flasks. The cells were exposed to this solution for 1 hour at 37° C.; at the end of this time the solution was removed, the cells were washed with PBS at 37° C., and the cells were re-fed with fresh growth medium.\nAt the end of 2 weeks, the cells were removed from the flasks with trypsin/EDTA and passed through a 20 to 25 micron pore size sterile Nytran filter. The cell suspension was evaluated by light microscopy for evidence of large clumps, and was re-filtered if necessary using a new sterile Nytran filter of the same size to remove any apparent large clumps of cells. […]", "key": {"[1]": {"conditions": "ENU 2.0 micrograms/ml 1 hour (so in the source), 2-week expression period, 6-TG stress"}, "[2]": {"conditions": "ENU-exposed, average 6 out of 38 clones"}}, "data": [{"smiles": "CCN(N=O)C(N)=O", "note": "[ENU, ethylnitrosourea]", "values": [{"measurement": "CE / mutant frequency of Phen-HPRT^− clones", "setting": "[1]", "result": "160±40 ×10^−6"}, {"measurement": "CE of Phen-alt-irr clones", "setting": "[1]", "result": "690±170 ×10^−6"}, {"measurement": "CE of Phen-alt-rev clones", "setting": "[1]", "result": "180±130 ×10^−6"}, {"measurement": "CE of Phen-parental clones", "setting": "[1]", "result": "95±20 ×10^−6"}, {"measurement": "reduction in total pro-survival pathway function, ENU-exposed versus vehicle-exposed", "setting": "ENU 20 micrograms/ml 1 hour", "result": "~3", "unit": "fold"}, {"measurement": "fCEs for all surviving cell clones (total pro-survival pathway function)", "setting": "ENU 20 micrograms/ml 1 hour, 6-TG 30 micrograms/ml 4 days, 600 cells per well", "result": "1210±380 ×10^−6"}, {"measurement": "surviving population with damage, Phen-alt-rev clones included", "setting": "ENU-exposed", "result": 92, "unit": "%"}, {"measurement": "average CE for Phen-Hprt- and Phen-alt clones, Phen-alt-rev clones included", "setting": "ENU-exposed cells", "result": "1100±350 ×10^−6"}, {"measurement": "combined average fCE of Phen-parental and Phen-alt-rev clones", "setting": "ENU-exposed cells", "result": "280±150 ×10^−6"}, {"measurement": "average fCE for Phen-Hprt^− clones and Phen-alt clones together (damage tolerance pathway function)", "setting": "ENU-exposed cells, without Phen-alt-rev clones", "result": "870±220 ×10^−6"}, {"measurement": "effect per unit dose of the calibrated stress conditions exposure upon CEs for Phen-parental clones", "setting": "ENU-exposed cells, 95÷35 micrograms 6-TG", "result": 2.7, "unit": "CE/microgram 6-TG"}, {"measurement": "post-calibrated stress condition fCEs", "setting": "ENU-exposed cells, SRID-10% of 6-TG (Example 5)", "result": "95 ×10^−6"}, {"measurement": "surviving population with permanent genomic changes", "setting": "ENU-exposed, Hprt mutations plus irreversible phenotypic alterations", "result": 75, "unit": "%"}, {"measurement": "Phen-parental clones as share of the final surviving treated cell population", "setting": "ENU-exposed, average 3 out of 38 clones", "result": 9, "unit": "%"}, {"measurement": "surviving clones with evidence of DNA damage in the Hprt gene", "setting": "[2]", "result": 15, "unit": "%"}, {"measurement": "surviving clones with reversible phenotypic alterations", "setting": "[2]", "result": 17, "unit": "%"}, {"measurement": "surviving clones with irreversible phenotypic changes (Phen-alt-irr)", "setting": "ENU-exposed, average 23 out of 38 clones", "result": 60, "unit": "%"}, {"measurement": "total survival frequency", "setting": "ENU-treated cells, calibrated stress conditions at SRID-70% to 80%", "result": "approximately 128 ×10^−6"}, {"measurement": "reduction in damage avoidance pathway function, Phen-parental clones only", "setting": "treated versus control cells", "result": "approximately 25 fold"}, {"measurement": "reduction in damage avoidance pathway function, Phen-parental and Phen-alt-rev together", "setting": "versus Phen-parental fCE of control cells", "result": 12, "unit": "fold"}]}]}
